# BindingDB's records for doi:10.7270/Q21R6P59 (German University In Cairo, 2011)
# Molecular target: cGMP-specific 3',5'-cyclic phosphodiesterase (Homo sapiens, UniProt O76074)
# Test: Phosphodiesterase Inhibition Assay
# Method: PDE activity was measured using a modification of the IMAP fluorescence polarization phosphodiesterase assay from Molecular Devices. The assay was modified to use tetramethylrhodamine (TAMRA-) cGMP as substrate. PDE hydrolysis of the fluorescent labeled substrate allows it to bind the IMAP binding reagent, which results in increased FP.
row,IC50,Structure (SMILES)
1,360 nM,"CCn1c(O)c2n(c1=O)[C@H](c1ccc(OC)cc1OC)c1[nH]c3ccccc3c1C2 [PDE5 Inhibitor, 8]"
2,560 nM,"C=CCn1c(O)c2n(c1=S)[C@H](c1ccc(OC)cc1OC)c1[nH]c3ccccc3c1C2 [PDE5 Inhibitor, 19]"

# The next lines start with the compound.
row,Structure (SMILES),IC50
1,"CCn1c(O)c2n(c1=O)[C@@H](c1ccc(OC)cc1OC)c1[nH]c3ccccc3c1C2 [PDE5 Inhibitor, 6]",720 nM
2,"COc1ccc([C@@H]2c3[nH]c4ccccc4c3Cc3c(O)n(C(C)(C)C)c(=O)n32)c(OC)c1 [PDE5 Inhibitor, 12]",550 nM
3,"COc1ccc([C@H]2c3[nH]c4ccccc4c3Cc3c(O)n(C(C)(C)C)c(=O)n32)c(OC)c1 [PDE5 Inhibitor, 9]",2400 nM
4,"COC(=O)[C@@H]1Cc2c([nH]c3ccccc23)[C@H](c2ccc(OC)cc2OC)N1 [PDE5 Inhibitor, 4]",6400 nM
